Among the test systems are HCT-15 colon; T-47D breast; OVCAR-5 ovarian; NCI/ADR-RES ovarian; PC-3 prostate; SK-MEL-5 melanoma; SW-620 colon; U251 CNS; NCI-H460 lung; RXF 393 renal.
Common to all, as to experiment: NCI-60 cell line screen, 48 h

Among the data in PubChem BioAssay (NCI) are GI50 and TGI values, retold here.

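Briefly, cells in 96-well plates were exposed to five compound concentrations for 48 h, and endpoints were estimated by linear interpolation. GI50: concentration for 50% inhibition of growth. At the TGI there is no net growth.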

As to `CCOC(=O)/C=C/C(C(=O)/C=C/c1ccc(O)c(OC)c1)=C(O)\C=C\c1ccc(O)c(OC)c1`, the GI50 in the experiment with HCT-15 colon is 2.27 µM; in the experiment with T-47D breast, 8.07 µM; with OVCAR-5 ovarian, 3.17 µM; with NCI/ADR-RES ovarian, 2.13 µM; in the experiment with PC-3 prostate, 12.8 µM; in the experiment with SK-MEL-5 melanoma, 2.22 µM. Moreover, the GI50 in the experiment on SW-620 colon is 3.6 µM; in the experiment on U251 CNS it was 0.613 µM; in the experiment on NCI-H460 lung, 20 µM. Further, the TGI with HCT-15 colon was 6.99 µM; in the experiment with T-47D breast it was over 100 µM; in the experiment with OVCAR-5 ovarian, 7.56 µM; in the experiment on NCI/ADR-RES ovarian, 6.94 µM; in the experiment with PC-3 prostate, over 100 µM; in the experiment with SK-MEL-5 melanoma, 6 µM. For the same compound, the TGI was 24.7 µM with SW-620 colon, 12.5 µM in the experiment with U251 CNS and 54.4 µM in the experiment with NCI-H460 lung.
Regarding `CCN1c2ccccc2C(Cl)(c2ccc(N(C)C)cc2)c2ccccc21`, the GI50 in the experiment on HCT-15 colon is 11.9 µM; with T-47D breast, 4.22 µM; with OVCAR-5 ovarian it was 17.7 µM; in the experiment on NCI/ADR-RES ovarian, 13.3 µM; in the experiment on PC-3 prostate it was 2.18 µM; with SK-MEL-5 melanoma, 3.76 µM. Moreover, the GI50 is 2.9 µM with SW-620 colon, 3.69 µM with U251 CNS and 7.77 µM in the experiment with NCI-H460 lung. Besides, the TGI is 49.4 µM with HCT-15 colon; 64.2 µM in the experiment on T-47D breast; 34.9 µM with OVCAR-5 ovarian; 44.6 µM in the experiment with NCI/ADR-RES ovarian; 9.88 µM in the experiment with PC-3 prostate; 15 µM with SK-MEL-5 melanoma. For the same compound, the TGI in the experiment with SW-620 colon worked out at 12.1 µM; in the experiment on U251 CNS, 17.4 µM; in the experiment with NCI-H460 lung, 23.4 µM.
For the compound `C/C(=N\NC(N)=S)C(CN(CC(C)C)CC(C)C)C(=O)Nc1ccc(C)cc1C` (stereo unspecified), the TGI in the experiment on HCT-15 colon, in the experiment with RXF 393 renal, in the experiment on OVCAR-5 ovarian, with SK-MEL-5 melanoma, in the experiment on SW-620 colon and in the experiment with U251 CNS was over 100 µM in each case. Further, the TGI in the experiment with NCI-H460 lung is over 100 µM.
In the case of `Nc1c(C(=O)Nc2ccccc2)[n+]([O-])c2ccccc2[n+]1[O-]`, the TGI in the experiment on HCT-15 colon amounted to 28.2 µM; in the experiment with OVCAR-5 ovarian it was 37.5 µM; in the experiment with SK-MEL-5 melanoma, 29.1 µM; in the experiment on SW-620 colon it was 38.3 µM; in the experiment with U251 CNS, 26.3 µM; in the experiment on NCI-H460 lung it was 35.7 µM.
As for `CC(=O)OC1(C)C(=O)OC1(C)C(C)=O` (stereo unspecified), the TGI in the experiment with HCT-15 colon, with RXF 393 renal, with OVCAR-5 ovarian, with SK-MEL-5 melanoma, in the experiment on SW-620 colon and in the experiment with U251 CNS was over 100 µM in each case.
For `CC(C)(C)C(=O)ON1N=NC2C3CC(OCc4ccccc4)(OCc4ccccc4)C(O3)C21` (stereo unspecified), the TGI with HCT-15 colon was 56.3 µM; with RXF 393 renal it was 36.5 µM; in the experiment on OVCAR-5 ovarian, over 100 µM; in the experiment on SK-MEL-5 melanoma it was 31.9 µM; in the experiment with SW-620 colon, 50.7 µM; with U251 CNS, 31.4 µM. Moreover, the TGI in the experiment with NCI-H460 lung was 60.4 µM.
`O=C1CN(C(=O)c2ccccc2)Cc2[nH]c3ccccc3c21`: the TGI in the experiment with HCT-15 colon, in the experiment with RXF 393 renal, in the experiment on OVCAR-5 ovarian, in the experiment on SK-MEL-5 melanoma, in the experiment on SW-620 colon and in the experiment with U251 CNS was over 100 µM throughout. Also, in the experiment on NCI-H460 lung, the TGI was over 100 µM.
In the case of `Cc1cc(NS(=O)(=O)c2ccc(NC(=O)c3cccc4c(Nc5ccc(S(=O)(=O)N=C(N)N)cc5)c5ccccc5nc34)cc2)no1`, the TGI with HCT-15 colon, in the experiment with RXF 393 renal, in the experiment with OVCAR-5 ovarian, in the experiment with SK-MEL-5 melanoma, with SW-620 colon and in the experiment on U251 CNS was over 100 µM throughout. The TGI in the experiment on NCI-H460 lung was over 100 µM.
For the compound `C/C(=N\N=C(/[Se])N1CC2CCC(CC2)C1)c1ccccn1`, the TGI in the experiment with HCT-15 colon stood at 2.06 µM; in the experiment on T-47D breast, 3.05 µM; in the experiment on RXF 393 renal, 0.359 µM; with OVCAR-5 ovarian, 2.51 µM; in the experiment on PC-3 prostate, 1.26 µM; in the experiment on SK-MEL-5 melanoma, 0.433 µM. For the same compound, the TGI in the experiment on SW-620 colon came out at 0.608 µM; in the experiment on U251 CNS, 1.51 µM; with NCI-H460 lung it was 2.61 µM.
In the case of `CN1CC(C(=O)C2C(=O)c3ccccc3C2=O)C(=O)C(=O)C(C(=O)C2C(=O)c3ccccc3C2=O)C1` (stereo unspecified), the TGI in the experiment on HCT-15 colon, in the experiment with OVCAR-5 ovarian, in the experiment on SW-620 colon, in the experiment on U251 CNS and with NCI-H460 lung was over 100 µM each time.
Take `O=C(OCC1CO1)c1cccs1` (stereo unspecified): the TGI in the experiment with HCT-15 colon, in the experiment on RXF 393 renal, in the experiment with OVCAR-5 ovarian, with SK-MEL-5 melanoma, in the experiment on SW-620 colon and in the experiment with NCI-H460 lung was over 100 µM throughout.
For the compound `COc1cccc2c1C(=O)c1c(O)c3c(c(O)c1C2=O)C[C@@](O)(C(=O)CO)C[C@@H]3OC1C[C@H](N)[C@H](O)[C@H](C)O1` (stereo partly specified), the GI50 with HCT-15 colon is 0.906 µM; in the experiment with T-47D breast, 0.0409 µM; in the experiment with RXF 393 renal, 0.0751 µM; in the experiment with OVCAR-5 ovarian, 0.214 µM; in the experiment on PC-3 prostate, 0.112 µM; with SK-MEL-5 melanoma, 0.0368 µM. For the same compound, the GI50 with SW-620 colon was 0.0312 µM; with U251 CNS it was 0.025 µM; in the experiment with NCI-H460 lung, 0.005 µM. Also, the TGI is over 50 µM with HCT-15 colon; 1.06 µM with T-47D breast; 0.25 µM in the experiment with RXF 393 renal; 14.5 µM with OVCAR-5 ovarian; 1.22 µM in the experiment with PC-3 prostate; 0.104 µM in the experiment with SK-MEL-5 melanoma. Further, the values for the TGI with SW-620 colon, in the experiment with U251 CNS and in the experiment on NCI-H460 lung were 2.97 µM, 2.25 µM and over 50 µM, respectively.
Regarding `COc1cccc(Cc2c3cc(OC)ccc3cc[n+]2C)c1`, the TGI with HCT-15 colon is over 100 µM; with OVCAR-5 ovarian, over 100 µM; with SK-MEL-5 melanoma, 65.4 µM; with SW-620 colon, over 100 µM; with U251 CNS, over 100 µM; in the experiment with NCI-H460 lung it was over 100 µM.
For the compound `COc1cc2c(cc1O)CC13CCC(=O)N1CCc1cc(OC)c(O)c-2c13` (stereo unspecified), the TGI in the experiment with HCT-15 colon, in the experiment on RXF 393 renal, in the experiment on OVCAR-5 ovarian, in the experiment with SK-MEL-5 melanoma, in the experiment with SW-620 colon and in the experiment on NCI-H460 lung was over 68.1 µM each time.
